According to patent US7186710B2, “Phthalazinones” (Altana Pharma AG, priority 2001, dated 2007):

Key:
[1] = target: T1, PDE7A1 (Homo sapiens, UniProt Q13946); assay: Inhibition of PDE7 activity, [3H]cAMP SPA enzyme assay with recombinant PDE7A1; assay type: biochemical; conditions: recombinant PDE7A1 from SF21 insect cells, 0.5 μM cAMP; for IC50: read-out: PDE7 −logIC50 (converted)
T1 construct: made in house; host or cells: SF21 insect cells (baculovirus, pCRBac)
Description: (§1) Method for Measuring Inhibition of PDE4 and PDE7 Activities
(§2) The cDNA for PDE7A1 (Genebank Acc. No. L12052) was isolated, using RT-PCR, from total cellular RNA derived from the T cell line CCRF-CEM and cloned into the cloning vector pCR2.1 (invitrogen, Groningen, NL) under standard conditions (the manufacturer's instructions). For expression in insect cells, the cDNA was subcloned into the baculo expression vector pCRBac (invitrogen, Groningen, NL). The cDNA for PDE4D3 was a gift of Marco Conti (Stanford University, USA). The ORF (Genebank Acc. No. U50159) was cut from the original pCMV5 vector with the restriction enzymes EcoRI and XbaI and subcloned in the expression vector pBacPak9 (Clontech, Palo Alto).
(§3) The recombinant baculoylrus was prepared by means of homologous recombination in SF9 insect cells. The expression plasmids were cotransfected with Bac-N-Blue (invitrogen, Groningen, NL) or Baculo-Gold DNA (Pharmingen, Hamburg) using a standard protocol (Pharmingen, Hamburg). Wt virus-free recombinant virus supernatants were selected using plaque assay methods. After that, high-titre virus supernatants were prepared by amplifying 3 times. PDEs were expressed in SF21 cells by infecting 2×10^6 cells/ml with an MOI (multiplicity of infection) between 2 and 5 in serum-free SF900 medium (Life Technologies, Paisley, UK). The cells were cultured at 28° C. for 48 hours, after which they were pelleted for 5–10 min at 1000 g and 4° C. In the case of PDE7A1 cells were cultured in spinner flasks at a rotational speed of 75 rpm.
(§4) The SF21 insect cells were resuspended, at a concentration of approx. 10^7 cells/ml, in ice-cold (4° C.) homogenization buffer (20 mM Tris, pH 8.2, containing the following additions: 140 mM NaCl, 3.8 mM KCl, 1 mM EGTA, 1 mM MgCl2, 1 mM β-mercaptoethanol, 2 mM benzamidine, 0.4 mM Pefablock, 10 μM leupeptin, 10 μM pepstatin A, 5 μM trypsin inhibitor) and disrupted by ultrasonication. The homogenate was then centrifuged for 10 min at 1000×g and the supernatant was stored at −80° C. until subsequent use (see below). The protein content was determined by the Bradford method (BioRad, Munich) using BSA as the standard.
(§5) PDE7A1 and PDE4D3 activities were inhibited by the said compounds in a modified SPA (scintillation proximity assay) test, supplied by Amersham Pharmacia Biotech (see procedural instructions “phosphodiesterase [3H]cAMP SPA enzyme assay, code TRKQ 7090”), carried out in 96-well microtitre plates (MTP's). The test volume is 100 μl and contains 20 mM Tris buffer (pH 7.4), 0.1 mg of BSA (bovine serum albumin)/ml, 5 mM Mg^2+, 0.5 μM cAMP (including about 50,000 cpm of [3H]cAMP), 2 μl of the respective substance dilution in DMSO and sufficient recombinant PDE (1000×g supernatant, see above) to ensure that 15–20% of the cAMP is converted under the said experimental conditions. After a preincubation of 5 min at 37° C., the reaction is started by adding the substrate (cAMP) and the assays are incubated for a further 15 min; after that, they are stopped by adding SPA beads (50 μl). In accordance with the manufacturer's instructions, the SPA beads had preylously been resuspended in water and then diluted 1:3 (v/v); the diluted solution also contains 3 mM IBMX. After the beads have been sedimented (>30 min), the MTP's are analyzed in commercially available measuring appliances and the corresponding IC50 values of the compounds for the inhibition of PDE activities are determined from the concentration-effect curves by means of non-linear regression.

[2] = target: T2, PDE4D3 (Homo sapiens, UniProt Q08499); assay: Inhibition of PDE4 activity, [3H]cAMP SPA enzyme assay with recombinant PDE4D3; assay type: biochemical; conditions: recombinant PDE4D3 from SF21 insect cells, 0.5 μM cAMP; for IC50: read-out: PDE4 −logIC50 (converted)
T2 construct: made in house; host or cells: SF21 insect cells (baculovirus, pBacPak9)
Description: as §1, §2, §3, §4, §5

T1 sequence (Q13946 whole entry): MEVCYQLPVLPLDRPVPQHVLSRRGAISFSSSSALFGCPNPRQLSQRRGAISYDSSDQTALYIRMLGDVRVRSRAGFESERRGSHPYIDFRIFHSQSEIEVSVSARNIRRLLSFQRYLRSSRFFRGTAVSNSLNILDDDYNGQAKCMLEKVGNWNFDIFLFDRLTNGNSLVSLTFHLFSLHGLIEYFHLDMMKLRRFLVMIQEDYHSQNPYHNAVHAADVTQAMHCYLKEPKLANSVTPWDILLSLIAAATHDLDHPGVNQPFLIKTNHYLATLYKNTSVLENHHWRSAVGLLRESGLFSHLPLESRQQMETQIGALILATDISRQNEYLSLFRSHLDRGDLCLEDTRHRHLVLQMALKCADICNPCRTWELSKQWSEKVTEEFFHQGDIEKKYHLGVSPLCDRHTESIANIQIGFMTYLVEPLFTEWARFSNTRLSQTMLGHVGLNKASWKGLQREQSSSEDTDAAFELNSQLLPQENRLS
T2 sequence (Q08499 1-673 isoform Q08499-2): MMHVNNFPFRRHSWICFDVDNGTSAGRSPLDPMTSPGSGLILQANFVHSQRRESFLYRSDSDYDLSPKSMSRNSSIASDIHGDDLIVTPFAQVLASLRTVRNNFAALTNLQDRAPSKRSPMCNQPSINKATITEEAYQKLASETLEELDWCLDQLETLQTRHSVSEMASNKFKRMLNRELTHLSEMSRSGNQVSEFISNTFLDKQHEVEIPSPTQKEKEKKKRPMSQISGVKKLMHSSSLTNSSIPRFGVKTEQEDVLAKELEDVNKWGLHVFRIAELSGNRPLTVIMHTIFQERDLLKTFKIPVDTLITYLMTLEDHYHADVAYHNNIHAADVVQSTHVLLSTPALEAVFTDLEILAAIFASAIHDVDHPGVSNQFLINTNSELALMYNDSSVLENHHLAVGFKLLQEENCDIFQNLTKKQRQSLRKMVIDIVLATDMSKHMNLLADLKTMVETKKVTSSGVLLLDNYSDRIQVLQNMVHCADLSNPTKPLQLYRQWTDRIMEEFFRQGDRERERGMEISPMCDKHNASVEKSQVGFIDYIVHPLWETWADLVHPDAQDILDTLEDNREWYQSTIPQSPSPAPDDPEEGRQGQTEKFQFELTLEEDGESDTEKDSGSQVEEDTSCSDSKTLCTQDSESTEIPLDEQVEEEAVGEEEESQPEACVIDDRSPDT

| Compound | melting point | IC50 [1] | IC50 [2] | PDE7 −logIC50 (mol/l) [1] | PDE4 −logIC50 (mol/l) [2] |
| --- | --- | --- | --- | --- | --- |
| COc1ccc(C2=NN(C3CCN(C(=O)N4CCNC4=O)CC3)C(=O)[C@H]3CC=CC[C@@H]23)cc1Cl (relative stereo) [Compound 22, cis-4-(3-Chloro-4-methoxy-phenyl)-2-{1-[1-(2-oxo-imidazolidin-1-yl)-methanoyl]-piperidin-4-yl}-4a,5,8,8a-tetrahydro-2H-phthalazin-1-one] | 216 to 218 °C |  |  |  |  |
| COc1ccc(C2=NN(CCCCOc3ccc(C(=O)O)cc3)C(=O)[C@H]3CC=CC[C@@H]23)cc1Cl (relative stereo) [Compound 12, (cis)-4-{4-[4-(3-Chloro-4-methoxy-phenyl)-1-oxo-4a,5,8,8a-tetrahydro-1H-phthalazin-2-yl]-butoxy}benzoic acid] | 169 to 171 °C | 97.7 nM | 6.46 nM |  |  |
| COc1ccc(C2=NN(c3nc(C)ccc3C(F)(F)F)C(=O)[C@H]3CC=CC[C@@H]23)cc1Cl (relative stereo) [Compound 6] |  |  |  | 7.08 | 7.64 |
| COc1ccc(C2=NN(C3CCN(S(=O)(=O)c4ccc(C)cc4)CC3)C(=O)[C@H]3CC=CC[C@@H]23)cc1Cl (relative stereo) [Compound 2, (cis)-4-(3-Chloro-4-methoxy-phenyl)-2-[1-(toluene-4-sulfonyl)-piperidin-4-yl]-4a,5,8,8a-tetrahydro-2H-phthalazin-1-one] | 198 to 199 °C | 107 nM | 3.98 nM |  |  |
| COc1ccc(C2=NN(c3ccc4c(c3)COC4=O)C(=O)[C@H]3CC=CC[C@@H]23)cc1Cl (relative stereo) [Compound 8, (cis)-4-(3-Chloro-4-methoxy-phenyl)-2-(1-oxo-1,3-dihydro-isobenzofuran-5-yl)-4a,5,8,8a-tetrahydro-2H-phthalazin-1-one] | 212 to 213 °C | 89.1 nM | 8.91 nM |  |  |
| COc1ccc(C2=NN(C3CCN(Cc4ccncc4)CC3)C(=O)[C@H]3CC=CC[C@@H]23)cc1Cl.Cl (relative stereo) [Compound 4, (cis)-4-(3-Chloro-4-methoxy-phenyl)-2-(1-pyridin-4-ylmethyl-piperidin-4-yl)-4a,5,8,8a-tetrahydro-2H-phthalazin-1-one hydrochloride] | 244 °C (dec.) | 41.7 nM | 2.45 nM |  |  |
| COc1ccc(C2=NN(c3ccc4ncsc4c3)C(=O)[C@@H]3CC=CC[C@H]23)cc1Cl (relative stereo) [Compound 7, (cis)-2-Benzothiazol-6-yl-4-(3-chloro-4-methoxy-phenyl)-4a,8,8a-tetrahydro-2H-phthalazin-1-one] | 156 to 157 °C | 105 nM | 8.13 nM |  |  |
| COc1ccc(C2=NN(C3CCCC3)C(=O)[C@H]3CC=CC[C@@H]23)cc1Cl (relative stereo) [Compound 10, (cis)-4-(3Chloro-4-methoxy-phenyl)-2-cyclopentyl-4a,5,8,8a-tetrahydro-2H-phthalazin-1-one] |  | 18.6 nM | 0.776 nM |  |  |
| COc1ccc(C2=NN(c3cc(C)c4c(C)nn(C)c4n3)C(=O)[C@H]3CC=CC[C@@H]23)cc1Cl (relative stereo) [Compound 17, (cis)-4-(3-Chloro-4-methoxy-phenyl)-2-(1,3,4-trimethyl-1H-pyrazolo[3,4-b]pyridin-6-yl)-4a,5,8,8a-tetrahydro-2H-phthalazin-1-one] |  | 41.7 nM | 21.9 nM |  |  |
| COc1ccc(C2=NN(c3nc(-c4cccs4)ns3)C(=O)[C@H]3CC=CC[C@@H]23)cc1Cl (relative stereo) [Compound 18, (cis)-4-(3-Chloro-4-methoxy-phenyl)-2-(3-thiophen-2-yl-[1,2,4]thiadiazol-5-yl)-4a,5,8,8a-tetrahydro-2H-phthalazin-1-one] |  | 77.6 nM | 23.4 nM |  |  |
| COc1ccc(C2=NN(c3ccc4[nH]ncc4c3)C(=O)[C@H]3CC=CC[C@@H]23)cc1Cl.Cl (relative stereo) [Compound 9, (cis)-4-(3-Chloro-4-methoxy-phenyl)-2-(1H-indazol-5-yl)-4a,5,8,8a-tetrahydro-2H-phthalazin-1-one hydrochloride] | 196 to 197 °C | 28.8 nM | 2.57 nM |  |  |
| COc1ccc(C2=NN(c3ccc(C(=O)N4CCN(CCN(C)C)CC4)cc3)C(=O)[C@H]3CC=CC[C@@H]23)cc1Cl.Cl.Cl (relative stereo) [Compound 5, (cis)-4-(3-Chloro-4-methoxy-phenyl)-2-(4-{1-[4-(2-dimethylamino-ethyl)-piperazin-1-yl]-methanoyl}-phenyl)-4a,5,8,8a-tetrahydro-2H-phthalazin-1-one dihydrochloride] | 198 to 201 °C | 66.1 nM | 13.8 nM |  |  |
| COc1ccc(C2=NN(C3CCN(C(C)=O)CC3)C(=O)[C@@H]3CC=CC[C@H]23)cc1Cl (relative stereo) [Compound 3, (cis)-2-(1-Acetyl-piperidin-4-yl)-4-(3-chloro-4-methoxy-phenyl)-4a,5.8,8a-tetrahydro-2H-phthalazin-1-one] | 206 to 208 °C | 182 nM | 5.62 nM |  |  |
| COc1ccc(C2=NN(c3ccc(C(=O)O)cc3)C(=O)[C@H]3CC=CC[C@@H]23)cc1Cl (relative stereo) [Compound 14, (cis)-4-{4-(3-chloro-4-methoxyphenyl)-1-oxo-4a,5,8,8a-tetrahydro-1H-phthalazin-2-yl}-benzoic acid] | 222 to 224 °C |  |  |  |  |
| COc1ccc(C2=NN(CCCCn3ccnc3)C(=O)[C@H]3CC=CC[C@@H]23)cc1Cl.Cl (relative stereo) [Compound 11, (cis)-4-(3-Chloro-4-methoxy-phenyl)-2-(4-imidazol-1-yl-butyl)-4a,5,8,8a-tetrahydro-2H-phthalazin-1-one hydrochloride] | 217 to 219 °C | 269 nM | 0.891 nM |  |  |
| COc1ccc(C2=NN(C3CCN(C(=O)N4CCOCC4)CC3)C(=O)[C@H]3CC=CC[C@@H]23)cc1Cl (relative stereo) [Compound 1, (cis)-4-(3-Chloro-4-methoxy-phenyl)-2-[1-(1-morpholin-4-yl-methanoyl)-piperidin-4-yl]-4a,5,8,8a-tetrahydro-2H-phthalazin-1-one] |  | 22.9 nM | 2.29 nM |  |  |
| COc1ccc(C2=NN(c3ccc(C(=O)O)cc3)C(=O)[C@H]3CC=CC[C@@H]23)cc1F (relative stereo) [Compound 13, (cis)-4-[4-(3-Fluoro-4-methoxy-phenyl)-1-oxo-4a,5,8,8a-tetrahydro-1H-phthalazin-2-yl]-benzoic acid] | 201 to 203 °C | 380 nM | 45.7 nM |  |  |
